The values below come from article PMC5964550 (Contrast Media & Molecular Imaging, 2018).

SMILES strings stand for the structures.

For series [1] the following is noted: rat, iv.
Series [2] in a line: [11C]metoclopramide plasma kinetics and metabolism in rats (radio-HPLC). As to conditions: rat. The class given is in vivo. The source says:
[…]. […] […].

The subject of a further series is human P-gp. The arrangement: method as in PMID 17962372, PMID 15502009. The conditions noted are these: cited from earlier work.
For series [3] the following is noted: cited from earlier work.
The test system of the next series is P-gp. As to conditions: mice, cited from earlier work.
Series [4] has as its system cytochrome P450 2D6 (CYP2D6). The conditions noted are these: cited from earlier work.
Another series relates to rodent P-gp. The arrangement: method as in PMID 17962372, PMID 15502009. The conditions noted are these: cited from earlier work.
Series [5] has as its system P-gp at the canalicular membrane. Further details: method as in PMID 12576431. The conditions noted are these: humans; cited from earlier work.
The next series has as its system OATP1B1 (SLCO1B1). The arrangement: method as in earlier work. As to conditions: in vitro; cited from earlier work.
The subject of another series is OATP2B1 (SLCO2B1). Further details: method as in earlier work. As to conditions: in vitro; cited from earlier work.
The next series has as its system OATP1B3 (SLCO1B3). Further details: method as in earlier work. As to conditions: in vitro; cited from earlier work.

With `CCN(CC)CCNC(=O)c1cc(Cl)c(N)cc1O[11CH3]` [[^11C]metoclopramide], the “AUCliver (area under the time-activity curve of radioactivity in the liver, 0 to 30 min)” value in series [1] (male, Wistar, in vivo, 3 mg/kg) amounted to 42.9 ± 13.8 SUV·min. For the same compound, the “effect of P-gp inhibition on liver AUC” value in series [1] (not told, 8 mg/kg) is “did not significantly impact”. Besides, the “increase in AUCplasma, pharmacologic dose vs tracer dose” value in series [2] (in vivo) is reported as 2.1 fold. Also, in [2] (metoclopramide 3 mg/kg, calculated from ref 14), the “proportion of parent [11C]metoclopramide in plasma, pharmacologic dose vs tracer dose” value is “higher”. The “impact of P-gp inhibition on plasma clearance and metabolism” value in series [2] (not told, 8 mg/kg) is “did not impact”.

Turning to `CCN(CC)CCNC(=O)c1cc(Cl)c(N)cc1OC` [metoclopramide], the “substrate of human P-gp” value in the series on human P-gp was “substrate”. In series [3] (after intravenous administration), the “excreted unchanged in urine” value is on record as 19%. Also, the “lower plasma clearance in hepatic impairment (liver cirrhosis)” value in series [3] (liver cirrhosis) was 50%. For the same compound, the “influence of P-gp deficiency on metoclopramide PK” value in the series with P-gp (3 mg/kg, over 5 hours) is on record as “no influence”. In the series on P-gp, the “effect of P-gp deficiency on brain distribution” value is listed as “enhance” and the “impact of P-gp deficiency on plasma pharmacokinetics” value is listed as “no or negligible impact”. Further, in [4], the “substrate of CYP2D6” value is listed as “substrate”. Besides, the “substrate of rodent P-gp” value in the series with rodent P-gp is “substrate”.

For the compound `COc1cc2c(cc1OC)CN(CCc1ccc(NC(=O)c3cc(OC)c(OC)cc3NC(=O)c3cnc4ccccc4c3)cc1)CC2` [tariquidar], the “effect on liver exposure to [99mTc]sestamibi” value in series [5] is listed as “enhance”. Further, the “inhibitor of OATP1B1” value in the series with OATP1B1 (SLCO1B1) was “not”. The “inhibitor of OATP2B1” value in the series with OATP2B1 (SLCO2B1) is “inhibitor”. The “inhibitor of OATP1B3” value in the series with OATP1B3 (SLCO1B3) is “not”.
